Source: patent US10189838B2, “Aza-oxo-indoles for the treatment and prophylaxis of respiratory syncytial virus infection” (Hoffmann-La Roche Inc., priority 2013, dated 2019)
pEC50: −log10 of the molar value.

Tests used:
[1] = Single dose PK in male ICR mouse (IV and PO); type: in vivo; conditions: male ICR mice; for AUC(0-t) / bioavailability: mouse, plasma; for bioavailability: read-out: F (bioavailability)
Experimental: The single dose PK in male ICR mouse was performed to assess their pharmacokinetic properties. Two groups of animals were dosed via either bolus intravenous (IV) or oral gavage (PO) of the respective compound. The animals for oral administration were fasted overnight prior to dosing and food was resumed 4 hours postdose. Blood samples (approximately 400 μL) were collected via cardiac puncture after euthanasia by carbon dioxide inhalation at 2 minutes, 5 minutes, 15 minutes, 30 minutes, 1 hour, 2 hours, 4 hours, 6 hours, 8 hours, and 24 hours postdose for IV group, and at 5 minutes, 15 minutes, 30 minutes, 1 hour, 2 hours, 4 hours, 6 hours, 8 hours, and 24 hours postdose for PO group. Blood samples were placed into tubes containing sodium heparin and centrifuged at 8000 rpm for 6 minutes at 4° C. to separate plasma from the samples.
Following centrifugation, the resulting plasma was transferred to clean tubes for bioanalysis on LC/MS/MS. The pharmacokinetic parameters were calculated using non-compartmental module of WinNonlin® Professional 5.2.

RSV Long strain = test: Viral cytopathic effect (CPE) assay, RSV Long strain; type: cell-based, Respiratory Syncytial Virus; conditions: human respiratory syncytial virus, 144 h, cell viability after 6 days (Cell Counting kit-8)
Method in brief: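 Cells in DMEM with 10% FBS infected next day with RSV Long (A subtype) at a dose giving ~80–90% CPE after 6 days, alongside half-log compound dilutions. Viability at day 6 by CCK-8, absorbance 450 nm referenced to 630 nm; EC50 is concentration giving 50% of maximal protection.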

RSV infection = conditions: selected infants, intramuscularly 15 mg/kg once a month for the RSV season; cited from earlier work

CS(=O)(=O)CCn1c(CN2C(=O)C3(CC3)c3ccncc32)nc2cc(Cl)ccc21 [Example 34-1, 1′-({5-Chloro-1-[2-(methylsulfonyl)ethyl]-1H-benzimidazol-2-yl}methyl)spiro[cyclopropane-1,3′-pyrrolo[2,3-c]pyridin]-2′(1′H)-one]
CLz ([1]; IV 1.45 mg/kg): 64.8 mL/min/kg
t1/2z ([1]; IV 1.45 mg/kg): 10.2 h
t1/2z ([1]; PO 25 mg/kg): 2.98 h
AUC(0-t) ([1]; IV 1.45 mg/kg): 373 ng·h/mL
AUC(0-t) ([1]; PO 25 mg/kg): 3280 ng·h/mL
bioavailability ([1]; PO 25 mg/kg): 51%
pEC50 (RSV Long strain): 7.92

CS(=O)(=O)CCn1c(CN2C(=O)C3(CC3)c3ccncc32)nc2cc(Cl)cc(F)c21 [Example 37-1, 1′-({5-Chloro-7-fluoro-1-[2-(methylsulfonyl)ethyl]-1H-benzimidazol-2-yl}methyl)spiro[cyclopropane-1,3′-pyrrolo[2,3-c]pyridin]-2′(1′H)-one]
CLz ([1]; IV 2 mg/kg): 44.4 mL/min/kg
t1/2z ([1]; IV 2 mg/kg): 0.976 h
t1/2z ([1]; PO 25 mg/kg): 3.74 h
AUC(0-t) ([1]; IV 2 mg/kg): 751 ng·h/mL
AUC(0-t) ([1]; PO 25 mg/kg): 9290 ng·h/mL
bioavailability ([1]; PO 25 mg/kg): 99%
pEC50 (RSV Long strain): 8.05

palivizumab
reduction of hospitalization rate caused by RSV infection (RSV infection): 45-55%
